Consider 61 compounds from the OPERA property sets (Mansouri et al. 2018).

Conditions in one data set: not given
`CC(C)C(OC(=O)c1cccnc1)c1ccc(Cl)cc1` (configuration not stated): the melting point amounted to 61 °C.

`CCCCC1C(=O)N(c2ccccc2)N(c2ccc(O)cc2)C1=O` (configuration not stated) came in with a melting point of 96 °C.

Turning to `Nc1nc(N)c2nc(-c3ccccc3)c(N)nc2n1`, the melting point stood at 316 °C.

`CCc1ccc(C)o1`: the boiling point was 118 °C.

For `CCc1nn(CCCN2CCN(c3cccc(Cl)c3)CC2)c(=O)n1CCOc1ccccc1`, the melting point was 83.5 °C.

With `CC(=O)c1ccc(C)c(C)c1`, the boiling point was 246 °C and the melting point is -3 °C.

In turn, `O=C(O)C(Cl)(Cl)CCl` yielded a melting point of 65.5 °C.

The compound `CC1(C)[C@@H]2CC[C@@]1(C)[C@H](O)C2` returned a melting point of 209 °C.

The compound `c1ccc2c(c1)cc1ccc3cccc4c5ccccc5c2c1c34` had a melting point of 162 °C.

The compound `C[C@@H]1CC2=CC(=O)CC[C@]2(C)[C@H]2CC[C@@]3(C)[C@@H](CC[C@]3(C)O)[C@H]12` had a melting point of 146 °C.

`CC(Br)C(Br)Br` (configuration not stated) gave a boiling point of 200 °C.

On to `CCCOC(=O)C(O)C(O)C(=O)OCCC` (configuration not stated), for which the boiling point worked out at 303 °C.

In the case of `CC(C)(c1ccc(OCCO)cc1)c1ccc(OCCO)cc1`, the ready biodegradability entry is reported as “not readily biodegradable”.

`CC(=O)C1CCCC1` returned a boiling point of 158 °C.

On to `Cc1ccc2[nH]c(C)cc2c1`, for which the melting point came out at 115 °C.

The compound `Cc1ccc2ccc(=O)oc2c1` had a melting point of 128 °C.

`Nc1ccc2c(c1)CCC2` displayed a boiling point of 248 °C and a melting point of 37.5 °C.

On to `O=C1C(O)=C(Cl)C(=O)C(O)=C1Cl`, for which the melting point came out at 284 °C.

Take `O=C1NC(=O)C(c2ccccc2)(c2ccccc2)N1`: the melting point was found to be 296 °C and the ready biodegradability entry was “not readily biodegradable”.

With `CCCCCCCCCCCCCCCCI`, the log10 vapour pressure (mmHg) is -4.78 and the melting point is 22 °C.

The compound `CCCCCCCCCCCCCCCC(=O)OC/C=C(C)/C=C/C=C(C)/C=C/C1=C(C)CCCC1(C)C` had a melting point of 28.5 °C.

With `O=C(OCC(=O)N1CCC[C@H]1C(=O)O)c1ccccc1`, the melting point came to 116 °C.

Turning to `CC1CC(OC(=O)C(O)c2ccccc2)CC(C)(C)N1C` (configuration not stated), the melting point was 113 °C.

Take `Cc1cc(Br)cc([N+](=O)[O-])c1`: the boiling point was determined as 270 °C and the melting point was 83 °C.

On to `CC(N)(CO)CO`, for which the melting point is 110 °C.

For the compound `CCC(CC)(CO)CO`, the boiling point is 240 °C and the melting point came out at 61.5 °C.

Regarding `CNC(=O)N(C)c1nnc(C(C)(C)C)s1`, the log10 Henry constant (atm·m³/mol) is -9.92, the log10 Koc (L/kg) was 1.83 and the log10 vapour pressure (mmHg) was -5.7.

`CC#CCC(C)C` gave a boiling point of 102 °C and a melting point of -92.9 °C.

Take `SC1CCCCC1`: the boiling point came out at 159 °C and the log10 vapour pressure (mmHg) is 0.598.

`Clc1ccccc1C=C1c2ccccc2-c2ccccc21` had a melting point of 69.5 °C.

For the compound `CCC(C)[N+](=O)[O-]` (configuration not stated), the boiling point was found to be 140 °C and the log10 vapour pressure (mmHg) came to 0.891.

`O=C(O)CSCc1ccccc1` gave a melting point of 61 °C.

With `COc1ccc(C(C)=O)c(OC)c1OC`, the boiling point came to 296 °C and the melting point was determined as 15.8 °C.

`CC=CCCCCC` yielded a boiling point of 124 °C, a log10 vapour pressure (mmHg) of 1.21 and a melting point of -80 °C.

With `CC(C(C)(C)C)C(C)(C)C`, the boiling point was 159 °C and the melting point is -38.7 °C.

In turn, `CCCC(CC(OCC)OCC)OCC` (configuration not stated) came in with a melting point of -100 °C.

As for `C=CC(O)CCl` (configuration not stated), the boiling point is 146 °C.

With `CCN(Cc1ccncc1)C(=O)C(CO)c1ccccc1` (configuration not stated), the melting point was 96.5 °C.

`O=C(O)COc1cccc(Cl)c1Cl` had a melting point of 174 °C.

For `C1CCC(OC2CCCCC2)CC1`, the boiling point amounted to 242 °C and the melting point was -36 °C.

In turn, `C[C@]12CCC(=O)C[C@@H]1CC[C@@H]1[C@@H]2CC[C@]2(C)[C@@H](O)CC[C@@H]12` yielded a melting point of 181 °C.

Turning to `O=C1CCC1`, the boiling point was determined as 99 °C, the log10 vapour pressure (mmHg) worked out at 1.63 and the melting point is -50.9 °C.

In turn, `Cc1cc(=O)oc2cc(O)c(O)cc12` gave a melting point of 275 °C.

Turning to `NC(=O)Nc1cccc(F)c1`, the log10 Koc (L/kg) turned out to be 1.77.

Consider `CCOS(=O)(=O)c1ccc(C)cc1`, for which the melting point was 34.5 °C.

The compound `CC1=CCCC1` gave a boiling point of 75.5 °C and a melting point of -126 °C.

As for `C[Si](C)(C)CO`, the boiling point came to 121 °C.

Take `CC(C)(C)c1ccc(C(C)(C)C)o1`: the boiling point came out at 210 °C.

In turn, `Clc1ccoc1` came in with a boiling point of 80 °C.

Take `CC/C=C\CCO`: the ready biodegradability result is on record as “readily biodegradable”.

For `O=c1[nH]cnc2c1ncn2[C@H]1CC[C@@H](CO)O1`, the melting point amounted to 162 °C.

With `CCSc1ccc2c(c1)N(CCCN1CCN(C)CC1)c1ccccc1S2`, the melting point came out at 63 °C.

The compound `Nc1ccc(N=O)cc1` yielded a melting point of 174 °C.

Take `C[C@@H](CO)NC(=O)[C@@H]1C=C2c3cccc4[nH]cc(c34)C[C@H]2N(C)C1`: the melting point came out at 162 °C.

`CC(=CC(=O)c1ccccc1)c1ccccc1` returned a boiling point of 342 °C.

For the compound `CC(Oc1ccc(Oc2cnc3cc(Cl)ccc3n2)cc1)C(=O)OCC1CCCO1` (configuration not stated), the melting point was 64 °C.

The compound `O=C([O-])c1ccccc1.[NH4+]` yielded a melting point of 194 °C.

Still in this data set, the particulars now being: fish.
`O=[N+]([O-])c1ccccc1` displayed a log10 BCF of 0.67 and a log10 biotransformation half-life (days) of -0.93.

For `FC(F)C(F)(F)OCC(Cn1cncn1)c1ccc(Cl)cc1Cl` (configuration not stated), the log10 biotransformation half-life (days) amounted to 1.23.

Compound `CCOP(=O)(OCC)OCC` returned a log10 BCF of 0.11 and a log10 biotransformation half-life (days) of -1.09.

For `CCCCCc1ccc(-c2ccccc2)cc1`, the log10 biotransformation half-life (days) is 0.03.
